Source: BindingDB's records for doi:10.1111/cbdd.12255 (Federal University of Rio De Janeiro, 2014)

Experiments:
[1] = target: T1, Amine oxidase [flavin-containing] B (Homo sapiens, UniProt P27338); experiment: MAO Assay; conditions: pH 7.4; 37 °C
T1 sequence (P27338 whole entry): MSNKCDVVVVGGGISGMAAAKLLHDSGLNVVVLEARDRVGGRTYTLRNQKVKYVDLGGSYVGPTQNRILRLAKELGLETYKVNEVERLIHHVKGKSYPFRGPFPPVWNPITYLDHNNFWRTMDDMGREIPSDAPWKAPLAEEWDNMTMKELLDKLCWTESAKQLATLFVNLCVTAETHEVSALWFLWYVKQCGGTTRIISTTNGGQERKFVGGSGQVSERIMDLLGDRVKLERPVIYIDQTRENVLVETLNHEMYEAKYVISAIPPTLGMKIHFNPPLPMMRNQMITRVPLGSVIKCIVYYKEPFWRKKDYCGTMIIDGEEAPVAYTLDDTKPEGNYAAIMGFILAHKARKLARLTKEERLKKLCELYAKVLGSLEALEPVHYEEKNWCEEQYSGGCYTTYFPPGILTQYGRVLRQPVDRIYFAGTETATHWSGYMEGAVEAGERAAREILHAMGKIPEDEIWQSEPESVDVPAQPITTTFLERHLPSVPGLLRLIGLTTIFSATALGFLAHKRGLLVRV
Description: (§1) The reaction mixture (final volume 200 µL) contained 5 µg/mL MAO-A or MAO-B in a 50 mM sodium phosphate buffer pH 7.4, 1 mM p-tyramine (substrate for MAO-A) or 1 mM benzyl-amine (substrate for MAO-B), 1 U/mL HRP, and 200 µM AR was incubated, in the presence or absence of the inhibitors, at 37 °C for 45 min. The enzyme plus inhibitors were incubated at 37 °C for 20 min followed by the addition of the substrates, HRP and AR. The inhibitors were dissolved in 100% DMSO, and equivalent concentrations of DMSO alone (1-2%) were used as controls. Clorgyline (MAO-A inhibitor) or pargyline (MAO-B inhibitor) at 5 µM concentration was used as positive control for inhibition.

[2] = target: T2, Amine oxidase [flavin-containing] A (Homo sapiens, UniProt P21397); experiment: MAO Assay; conditions: pH 7.4; 37 °C
T2 sequence (P21397 whole entry): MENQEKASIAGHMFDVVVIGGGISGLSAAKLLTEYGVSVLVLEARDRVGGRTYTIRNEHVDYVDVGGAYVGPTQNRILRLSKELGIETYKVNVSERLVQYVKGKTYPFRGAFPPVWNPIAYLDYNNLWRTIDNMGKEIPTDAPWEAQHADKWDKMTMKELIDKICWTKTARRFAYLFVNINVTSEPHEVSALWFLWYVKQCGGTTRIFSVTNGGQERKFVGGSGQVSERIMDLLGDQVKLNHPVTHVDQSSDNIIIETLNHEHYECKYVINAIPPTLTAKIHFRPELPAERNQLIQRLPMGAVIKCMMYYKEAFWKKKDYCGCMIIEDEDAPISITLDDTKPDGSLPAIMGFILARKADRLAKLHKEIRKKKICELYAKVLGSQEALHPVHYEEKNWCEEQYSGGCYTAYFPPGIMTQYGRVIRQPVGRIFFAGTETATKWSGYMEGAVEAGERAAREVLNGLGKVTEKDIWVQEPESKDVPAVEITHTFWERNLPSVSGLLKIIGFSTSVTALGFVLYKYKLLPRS
Description: as §1

Structure (SMILES) | Ki [1] [µM] | Ki [2] [µM]
NCCCN(CCCC=Nc1cc(O)c2ccccc2c1O)Cc1ccccc1 [2‐({4‐[(3‐ aminopropyl)(benzyl)amino]butyl}amino)naphthalene‐ 1,4‐dione (Compound b2)] | 12 | 28
CC(C)=CCC1C(=O)C(=O)c2ccccc2C1=O (centres undefined) [4-hydroxy-3-(3-methylbut-2-enyl)naphthalene-1,2-dione] | 59 | –
CC(C)=Cc1c(N=CCCCN(CCCN)Cc2ccccc2)c(O)c2ccccc2c1O [2‐({4‐[(3‐aminopropyl)(benzyl)amino]butyl}amino)‐3‐ (2‐methylprop‐1‐en‐1‐yl)naphthalene‐1,4‐dione (Compound c2)] | 58 | 63
CC(C)C=C1C(=O)C(=O)c2ccccc2C1=O | 18 | 35
CC(C)=CCc1c(N=CCCCN(CCCN)Cc2ccccc2)c(O)c2ccccc2c1O [2‐({4‐[(3‐aminopropyl)(benzyl)amino]butyl}amino)‐3‐ (3‐methylbut‐2‐en‐1‐yl)naphthalene‐1,4‐dione (Compound a2)] | 40 | 22
